Results from publication PMC11590026, “Synthesis, enzyme inhibition, and docking studies of new schiff bases of disalicylic acid methylene-based derivatives as dual-target antibacterial agents” (Frontiers in Chemistry, 2024).
Converted amounts (≈) assume the structure as drawn. Where two headings read alike, the source gives them in different places. Each block holds one compound with its values, some of them ahead of it.

Assays:
A. flavus [1] = test: Modified disk diffusion, inhibition zone; assay type: cell-based, Aspergillus flavus
Description: (§1) The antimicrobial effects of the currently synthesized Schiff bases (6a-l) were tested against two Gram-positive bacteria (S. aureus and B. subtilis), two Gram-negative bacteria (E. coli and P. aeruginosa), and two strains of fungus (A. flavus and C. albicans). The modified disk diffusion method ([Alkhaldi et al., 2019]; [Manso et al., 2021]) was used to determine the inhibition zones (IZ, mm/mL) and the minimal inhibitory concentration (MIC, nM). Ciprofloxacin and Fluconazole was used as positive controls. Tables 1–3 display the findings. […]
(§2) incubated at 35-37 °C for 24-48 hours and yeast as Candida albicans (ATCC 7102) incubated at 30 °C for 24-48 hours and, then the diameters of the inhibition zones were measured in millimeters. Standard discs of ciprofloxacin (Antibacterial agent), Fluconazole (Antifungal agent) served as positive controls for antimicrobial activity but filter discs impregnated with 10 µl of solvent (distilled water, chloroform, DMSO) were used as a negative control. Blank paper disks (Schleicher & Schuell, Spain) with a diameter of 8.0 mm were impregnated 10µ of tested concentration of the stock solutions. When a filter paper disc impregnated with a tested chemical is placed on agar the chemical will diffuse from the disc into the agar. This diffusion will place the chemical in the agar only around the disc. […]

C. albicans [2] = test: Modified disk diffusion, inhibition zone; assay type: cell-based, Candida albicans
Description: as §1, §2

B. subtilis [3] = test: MIC/MBC assay, twofold serial dilution; assay type: cell-based, Bacillus subtilis
Description: (§3) The results of this in vitro assay test are consistent with the findings of the antimicrobial sensitivity test. […] It has lower antimicrobial activity than ciprofloxacin against all pathogens tested.
(§4) The MBC differs from the MIC. […]
(§5) 4.2.2. Minimum inhibitory concentration assay
(§6) In 96-well microtiter plates and […] of fresh bacterial culture of a single McFarland unit overnight, a double serial dilution of each compound […] in sterile standard saline were prepared to every single source well. Ciprofloxacin antibiotic (5 mg / mL - 1) and normal saline were included as standard reference in each assay. The plates were incubated at 37 0C overnight. As an indicator of bacterial growth, […] of p-iodonitrotetrazolium violet (INT) was added to each well and incubated at 37 0C for 30 […]
(§7) min. MIC values are recorded as the lowest concentration of the extract that completely inhibited bacterial growth that is clear well. The colorless tetrazolidium salt acts as an electron accepter and is reduced to a red colored formazan product by biological activity organisms. Where bacterial growth was inhibited, the solution in the well remained clear after incubation with INT. […]

S. aureus [4] = test: MIC/MBC assay, twofold serial dilution; assay type: cell-based, Staphylococcus aureus
Description: as §3, §4, §5, §6, §7

E. coli [5] = test: MIC/MBC assay, twofold serial dilution; assay type: cell-based, Escherichia coli
Description: as §3, §4, §5, §6, §7

P. aeruginosa [6] = test: MIC/MBC assay, twofold serial dilution; assay type: cell-based, Pseudomonas aeruginosa
Description: as §3, §4, §5, §6, §7

[7] = tested on: Gram-positive and Gram-negative bacteria; test: Disk diffusion inhibition zone, all bacterial pathogens tested; assay type: cell-based
Description: (§8) The antimicrobial effects of the currently synthesized Schiff bases (6a-l) were tested against two Gram-positive bacteria (S. aureus and B. subtilis), two Gram-negative bacteria (E. coli and P. aeruginosa), and two strains of fungus (A. flavus and C. albicans). The modified disk diffusion method ([Alkhaldi et al., 2019]; [Manso et al., 2021]) was used to determine the inhibition zones (IZ, mm/mL) and the minimal inhibitory concentration (MIC, nM). Ciprofloxacin and Fluconazole was used as positive controls. Tables 1–3 display the findings.

B. subtilis [8] = test: Modified disk diffusion, inhibition zone; assay type: cell-based, Bacillus subtilis; conditions: B. subtilis (G+)
Description: as §1, §2

S. aureus [9] = test: Modified disk diffusion, inhibition zone; assay type: cell-based, Staphylococcus aureus; conditions: S. aureus (G+)
Description: as §1, §2

E. coli [10] = test: Modified disk diffusion, inhibition zone; assay type: cell-based, Escherichia coli; conditions: E. coli (G−)
Description: as §1, §2

P. aeruginosa [11] = test: Modified disk diffusion, inhibition zone; assay type: cell-based, Pseudomonas aeruginosa; conditions: P. aeruginosa (G−)
Description: as §1, §2

[12] = tested on: A. flavus and C. albicans; test: Disk diffusion inhibition zone, both fungi; assay type: cell-based; conditions: against A. flavus and C. albicans
Description: as §8

A. flavus [13] = test: Antifungal assay (MIC/MFC), twofold serial dilution; conditions: for MIC: A. flavus
C. albicans [14] = test: as above

MIC (B. subtilis [3]): 0.01 ± 0.001 µM (≈ 0.00331 µg/mL) | MIC (B. subtilis [3]; Bacillus subtilis, read-out: MIC): 0.01 µM (≈ 0.00331 µg/mL) | MIC (S. aureus [4]): 0.03 ± 0.002 µM (≈ 0.00994 µg/mL) | MIC (S. aureus [4]; Staphylococcus aureus, read-out: MIC): 0.03 µM (≈ 0.00994 µg/mL) | MIC (E. coli [5]; Escherichia coli, read-out: MIC): 0.06 ± 0.004 µM (≈ 0.0199 µg/mL) | MIC (P. aeruginosa [6]; Pseudomonas aeruginosa, read-out: MIC): 0.06 ± 0.005 µM (≈ 0.0199 µg/mL)
SMILES: O=C(O)c1cn(C2CC2)c2cc(N3CCNCC3)c(F)cc2c1=O [Ciprofloxacin, reference compound]
Inhibition zone (IZ) diameter (A. flavus [1]): NA (NA: no activity (8 mm)) | Inhibition zone (IZ) diameter (C. albicans [2]): NA (NA: no activity (8 mm)) | MBC (B. subtilis [3]): 0.019 ± 0.001 µM (≈ 0.0063 µg/mL) | MBC (B. subtilis [3]; Bacillus subtilis, read-out: MBC): 0.019 µM (≈ 0.0063 µg/mL) | MBC (S. aureus [4]): 0.045 ± 0.002 µM (≈ 0.0149 µg/mL) | MBC (S. aureus [4]; Staphylococcus aureus, read-out: MBC): 0.045 µM (≈ 0.0149 µg/mL) | MBC (E. coli [5]): 0.09 ± 0.006 µM (≈ 0.0298 µg/mL) | MBC (E. coli [5]; Escherichia coli, read-out: MBC): 0.09 µM (≈ 0.0298 µg/mL) | MBC (P. aeruginosa [6]): 0.09 ± 0.006 µM (≈ 0.0298 µg/mL) | MBC (P. aeruginosa [6]; Pseudomonas aeruginosa, read-out: MBC): 0.09 µM (≈ 0.0298 µg/mL) | Inhibition zones (IZ) [7]: 40 mm

MIC (A. flavus [13]): 11.50 ± 1 µM (≈ 3.52 µg/mL) | MIC (A. flavus [13]; Aspergillus flavus): 11.5 µM (≈ 3.52 µg/mL) | MIC (C. albicans [14]; C. albicans): 17.50 ± 1 µM (≈ 5.36 µg/mL) | MIC (C. albicans [14]; Candida albicans): 17.5 µM (≈ 5.36 µg/mL)
SMILES: OC(Cn1cncn1)(Cn1cncn1)c1ccc(F)cc1F [Fluconazole, reference compound]
Inhibition zone (IZ) diameter (B. subtilis [8]): NA (NA: no activity (8 mm)) | Inhibition zone (IZ) diameter (S. aureus [9]): NA (NA: no activity (8 mm)) | Inhibition zone (IZ) diameter (E. coli [10]): NA (NA: no activity (8 mm)) | Inhibition zone (IZ) diameter (P. aeruginosa [11]): NA (NA: no activity (8 mm)) | IZ values [12]: 40 mm | MFC (A. flavus [13]; Aspergillus flavus): 22.8 ± 1 µM (≈ 6.98 µg/mL) | MFC (C. albicans [14]; Candida albicans): 35 ± 2 µM (≈ 10.7 µg/mL)
